PubChem BioAssay (NCI)
Several values for one entry are separate records, joined by “and”; a condition that tells them apart may be missing. Equal values may be shown once.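 Following 48 hours of exposure in 96-well plates, responses at five concentrations were used to interpolate endpoints linearly. GI50 marks 50% less growth. The concentration for full growth arrest is given as TGI.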

Experiments:
Test in all cases: growth of human tumour cells (NCI), 48 h
DU-145 prostate = system: DU-145 prostate
HCT-15 colon = system: HCT-15 colon
HL-60(TB) leukemia = system: HL-60(TB) leukemia
HS 578T breast = system: HS 578T breast
KM12 colon = system: KM12 colon
MOLT-4 leukemia = system: MOLT-4 leukemia
OVCAR-4 ovarian = system: OVCAR-4 ovarian
SF-268 CNS = system: SF-268 CNS
SK-MEL-2 melanoma = system: SK-MEL-2 melanoma
SK-MEL-5 melanoma = system: SK-MEL-5 melanoma

| SMILES | GI50 (DU-145 prostate) | TGI (DU-145 prostate) [nM] | GI50 (HCT-15 colon) | TGI (HCT-15 colon) | GI50 (HL-60(TB) leukemia) | TGI (HL-60(TB) leukemia) | GI50 (HS 578T breast) | TGI (HS 578T breast) [nM] | GI50 (KM12 colon) | TGI (KM12 colon) | GI50 (MOLT-4 leukemia) [nM] | TGI (MOLT-4 leukemia) [nM] | GI50 (OVCAR-4 ovarian) | TGI (OVCAR-4 ovarian) | GI50 (SF-268 CNS) | TGI (SF-268 CNS) | GI50 (SK-MEL-2 melanoma) | TGI (SK-MEL-2 melanoma) | GI50 (SK-MEL-5 melanoma) | TGI (SK-MEL-5 melanoma) |
| --- | --- | --- | --- | --- | --- | --- | --- | --- | --- | --- | --- | --- | --- | --- | --- | --- | --- | --- | --- | --- |
| CS(=O)(=O)c1ccc(Oc2cc(F)cc(C#N)c2)c2c1[C@H](O)[C@H](F)[C@@H]2F | > 100000 nM | > 100000 | > 100000 nM | > 100000 nM | > 100000 nM | > 100000 nM | > 100000 nM | > 100000 | > 100000 nM | > 100000 nM | > 100000 | > 100000 | > 100000 nM | > 100000 nM | > 100000 nM | > 100000 nM | > 100000 nM | > 100000 nM | > 100000 nM | > 100000 nM |
| Cn1ccnc1C(=O)/C=C/c1ccc(CC(=O)Nc2ccc(Cl)cc2)cc1 | 1420 nM | > 25000 | 999 nM | > 25000 nM | 4810 nM | > 25000 nM | 15700 nM | > 25000 | 1510 nM | > 25000 nM | 1740 | > 25000 | 2180 nM | > 25000 nM | 1240 nM | > 25000 nM | > 25000 nM | > 25000 nM | 14400 nM | > 25000 nM |
| CNc1ccccc1C(=O)N/N=C/C=C/c1ccccc1 | 3470 nM | > 57600 | 457 nM | > 74100 nM | 566 nM | 18500 nM | 1970 nM | > 100000 | 547 nM | 50500 nM | 1860 | > 100000 | 5610 nM | > 48500 nM | 7230 nM | > 100000 nM | 733 nM | 78200 nM | 849 nM | 31300 nM |
| C=C1C(=O)O[C@H]2[C@H]1CC/C(COC(=O)C(=O)c1c[nH]c3ccccc13)=C\CC[C@@]1(C)O[C@@H]21 | 3120 nM | 11800 | 1750 nM | 4020 nM | 1860 nM | 4670 nM | 4890 nM | > 100000 | 3280 nM | 13400 nM | 2200 | 7300 | 5180 nM | 25900 nM | 2390 nM | 7680 nM | 1630 nM | 3780 nM | 2060 nM | 4130 nM |
| CC(C)C[C@@H](NC(=O)[C@@H](Cc1ccccc1)NC(=O)c1cnccn1)B1O[C@H]2[C@H](O)[C@@H](C(=O)NCCCC[C@@H]3NC(=O)[C@@H](Cc4ccccc4)NC(=O)[C@H](CC(=O)O)NC(=O)CNC(=O)[C@H](CCCN=C(N)N)NC3=O)O[C@@H](CN)[C@H]2O1 | 6.62 nM and 5 nM | 5360 | 11.3 nM and 7.03 nM | 65.9 nM and 37.6 nM | 10.2 nM and 5 nM | 69.8 nM and 74.3 nM | 4.13 nM and 5 nM | – | 13.1 nM and 5.7 nM | 43.7 nM and 17.7 nM | 2.74 | 9.31 | 9.35 nM and 5 nM | 451 nM and 1090 nM | 8.77 nM and 5.35 nM | 38.7 nM and 57.4 nM | 7.02 nM and 5 nM | 60.4 nM and 12.3 nM | 4.57 nM and 5 nM | 18.8 nM and 8.55 nM |
| O=C1c2ccccc2-c2c1c1ccccc1c(=O)n2CCCNCCCn1c2c(c3ccccc3c1=O)C(=O)c1ccccc1-2 | 1490 nM | 5850 | 1030 nM | 3810 nM | > 50000 nM | > 50000 nM | 9540 nM | 32900 | 2900 nM | 9650 nM | 398 | – | 3200 nM | 9570 nM | 7130 nM | > 30600 nM | 22700 nM | > 50000 nM | 7210 nM | 16900 nM |
